# Tests used:
# [1] = tested on: HCT116 p53^+/+ cells; test: SRB cytotoxicity assay on HCT116 p53+/+ cells; type: cell-based, human; conditions: Homo sapiens, HCT-116, 48 h of treatment
# Description: The SCC-25 (ATCC® CRL-1628™), Detroit-562 (ATCC® CCL-138™), and THP-1 (ATCC® TIB-202™) cells were purchased from Rio de Janeiro Cell Bank (Duque de Caxias, Brazil), and NOK-si was kindly provided by Prof. Carlos Rossa from the School of Dentistry—UNESP. All the cells were cultivated according to standard conditions. Human colorectal adenocarcinoma HCT116 cell lines (ATCC® CCL-247™) expressing p53 and its p53-null isogenic derivative (HCT116 p53^−/−) were provided by B. Vogelstein (The Johns Hopkins Kimmel Cancer Center, Baltimore, MD, USA).
# HCT p53^+/+ and HCT p53^−/− cell lines were seeded in 96-well plates, with a concentration of 5000 cells/well, and allowed to adhere overnight. Afterwards, they were treated with serial dilutions of the compounds for an additional 48 h (compounds were prepared at 30 mM, in DMSO, and tested with a starting concentration of 50μM and 15 μM). Cells passed then through a series of essential steps (fixation with 10% trichloroacetic acid, for 1 h at 4 °C; staining with 0.4% sulforhodamine B (SRB); wash with 1% acetic acid; and solubilization with 10 mM Tris-Base); subsequently, absorbance was measured at 510 nm in a microplate reader (Biotek Instruments Inc., Synergy, MX, USA). IC50 values were determined using GraphPad Prism software, Version 7.0 (La Jolla, CA, USA).
# [2] = Distribution coefficient (eLogD) by HPLC retention time; type: physicochemical; conditions: Supelco Ascentis Express RP Amide column, pH 7.4, read-out: LogD7.4
# Protocol: The determination of the experimental distribution coefficient (eLogD) was based on the retention time of molecules in the stationary phase using high-performance liquid chromatography (HPLC). Chromatographic analysis was performed on a Supelco Ascentis Express RP Amide HPLC column (5 cm × 2.1 mm, 2.7 μm), with a binary gradient mobile phase consisting of (A) 5% methanol in 10 mM ammonium acetate pH 7.4 and (B) 100% methanol. The mobile phase was eluted as follows: 0 min, 95% A; 0.3 min, 100% A; 5.2 min, 0% A; 5.6 min, 0% A; 5.8 min, 100% A; 7.0 min, 100% A. The total run time was 7 min, with a sample injection volume of 5 μL. Test compounds were prepared by diluting stock solutions (1.0 mg/mL in DMSO) in a mixture of mobile phases A:B (1:1 v/v) containing an internal standard (200 nM), achieving a final concentration of 1.0 μg/mL (final DMSO concentration ≤ 1%). The prepared solutions were transferred to a 96-well plate in duplicate, which was then sealed and introduced into the autosampler for analysis. […]. These reference and control compounds were injected at the beginning and end of the experimental procedure. A calibration graph was obtained by plotting the retention times of the reference compounds against their respective LogD values. The resulting equation (y = mx + b) was used to calculate the eLogD7.4 values for the test compounds and controls. […]
# [3] = Parallel artificial membrane permeability assay (PAMPA); type: in vitro ADME
# Protocol: The parallel artificial membrane permeability assay (PAMPA) was performed using a 96-well pre-coated PAMPA plate system (Corning, Bedford, MA, USA). Solutions of test compounds and controls [metoprolol (Sigma-Aldrich, St. Louis, MO, USA) and nadolol (Sigma-Aldrich, St. Louis, MO, USA)] were prepared by diluting 10 mM stock solutions in DMSO with phosphate-buffered saline (PBS) at pH 6.5 to obtain a final concentration of 10 μM (final DMSO concentration ≤ 1%). The donor compartment was loaded with 300 μL of the prepared compound solutions, while the acceptor compartment received 200 μL of PBS pH 7.4. The plate was then assembled, and the system was incubated at 37 °C, with shaking at 100 rpm for 5 h. Samples of the initial donor solution (T0) were collected (10 μL) and transferred to an analysis plate. A quenching solution [10% water and 90% methanol: acetonitrile (50:50) + 50 nM tolbutamide (Sigma-Aldrich, St. Louis, MO, USA) as internal standard] was added (300 μL), along with 60 μL of PBS buffer pH 6.5. The analysis plate was stored at −20 °C. At the end of the incubation period, samples were collected from the donor and acceptor compartments and added to the analysis plate, following the same quenching procedure. The final concentrations of the compounds in the donor, acceptor, and T0 wells were quantified by an LCMS-8045 system (Shimazu, Kyoto, Japan). […]
smiles,measurement,setting,value
"COc1cccc(C(=O)/C=C/c2cccc(B(O)O)c2)c1 [Compound 5, (E)-(3-(3-(3-methoxyphenyl)-3-oxoprop-1-en-1-yl)phenyl)boronic acid]",IC50,[1],2500 ± 170 nM
same,chromatographic logD,[2],3.92
same,permeability class,[3],high passive permeability
same,"Papp at 5 h, 10 μM","[3]; donor pH 6.5, acceptor pH 7.4, 5 h, 37 °C, read-out: PAMPA (Mean Pe)",17.5 ×10⁻⁶ cm/s
